The source of these data is patent publication US20060148858A1, “1, 2-Azole derivatives with hypoglycemic and hypolipidemic activity” (priority 2002, published 2006).

Structures are written as SMILES. Like-named read-outs stand apart in the source and are kept apart here.

One assay deals with KKAY mice. In words: Hypoglycemic and hypolipidemic actions in mice (Test Example 1). It counts as in vivo. The following applies: Mus musculus, po, 96 h, 0.005% in powdery diet, four days, non-treated group taken as 100%. In outline: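 KKAY mice (9 to 12 weeks old, 5 per group) were fed diet containing 0.005% test compound ad libitum for four days. Plasma glucose and triglycerides from orbital venous blood were measured enzymatically, reported as % decrease relative to untreated group (100%).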

The target in a further assay is T1, PPARγ-RXRα heterodimer (Homo sapiens, UniProt P37231).
T1 construct: expressed in transfected cells; host or cells: CHO-K1
T1 sequence (P37231 1-477 isoform P37231-2): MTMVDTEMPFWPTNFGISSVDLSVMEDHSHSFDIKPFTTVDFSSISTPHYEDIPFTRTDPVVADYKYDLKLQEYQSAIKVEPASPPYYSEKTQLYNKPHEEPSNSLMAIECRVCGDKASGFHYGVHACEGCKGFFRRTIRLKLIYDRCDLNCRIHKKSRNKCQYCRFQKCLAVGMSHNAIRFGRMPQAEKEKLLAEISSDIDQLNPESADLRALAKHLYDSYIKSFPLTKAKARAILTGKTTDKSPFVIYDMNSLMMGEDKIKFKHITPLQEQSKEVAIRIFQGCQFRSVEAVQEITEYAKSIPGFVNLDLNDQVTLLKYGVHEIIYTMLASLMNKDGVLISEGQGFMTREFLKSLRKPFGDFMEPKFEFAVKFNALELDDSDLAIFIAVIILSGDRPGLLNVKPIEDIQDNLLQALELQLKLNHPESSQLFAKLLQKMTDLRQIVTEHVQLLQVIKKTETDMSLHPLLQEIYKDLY
T1 sequence (P19793 1-462 partner): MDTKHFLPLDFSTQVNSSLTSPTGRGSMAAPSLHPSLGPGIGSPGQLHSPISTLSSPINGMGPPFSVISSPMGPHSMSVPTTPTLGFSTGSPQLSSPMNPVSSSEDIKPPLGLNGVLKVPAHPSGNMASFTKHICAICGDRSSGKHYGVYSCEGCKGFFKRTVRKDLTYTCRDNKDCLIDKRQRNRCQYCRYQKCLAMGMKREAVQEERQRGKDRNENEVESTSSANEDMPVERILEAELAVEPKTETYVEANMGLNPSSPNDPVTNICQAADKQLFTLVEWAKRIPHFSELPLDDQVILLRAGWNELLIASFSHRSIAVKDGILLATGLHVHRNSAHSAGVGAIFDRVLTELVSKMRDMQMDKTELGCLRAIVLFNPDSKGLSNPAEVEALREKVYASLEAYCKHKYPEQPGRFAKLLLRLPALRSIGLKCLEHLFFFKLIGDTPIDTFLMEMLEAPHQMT
In words: PPARγ-RXRα heterodimer ligand activity, luciferase reporter in PPARγ:RXRα:4ERPP/CHO-K1 cells (Test Example 3). It counts as cell-based. The following applies: 18-48 hours, concentration for 50% of the maximum fold induction. In outline:
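Stable CHO-K1 line co-expressing hPPARγ/RXR with 4ERPP-TK luciferase reporter, 2×10^4 cells per well, treated 18-48 h at 37° C. in HAM F12 with 0.1% fatty acid-free BSA. Luciferase fold induction versus untreated taken as 1; EC50 is concentration giving 50% of maximal fold induction.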

The mark [1] stands for this setting: rate of decrease in blood glucose level, read-out: Hypoglycemic action (%).
The mark [2] stands for this setting: rate of decrease in blood triglyceride level, read-out: Hypolipidemic action (%).

The term EC50 denotes the midpoint of the concentration-response curve. A lower EC50 goes with greater potency.

For the compound `CCC(CC)c1nn(-c2ccc(C(F)(F)F)cn2)cc1CCCOc1c(CC(=O)O)cccc1OC` [Example 212, [2-(3-{3-(1-ethylpropyl)-1-[5-(trifluoromethyl)-2-pyridyl]-1H-pyrazol-4-yl}propoxy)-3-methoxyphenyl]acetic acid], the inhibition in vivo at 0.005 % in diet worked out at 52% in the assay with KKAY mice (setting [1]) and 55% with KKAY mice (setting [2]). Besides, the EC50 at PPARγ-RXRα heterodimer came out at 13 nM. `CCOc1ccc(CC(=O)O)cc1OCCCc1cn(-c2ccc(C(F)(F)F)cn2)nc1C1CCCCC1` [Example 201, [3-(3-{3-cyclohexyl-1-[5-(trifluoromethyl)-2-pyridyl]-1H-pyrazol-4-yl}propoxy)-4-ethoxyphenyl]acetic acid] showed an EC50 at PPARγ-RXRα heterodimer of 63 nM. `COc1ccc(CC(=O)O)cc1OCCCc1cn(-c2ccc(C(F)(F)F)cn2)nc1C1CCCCC1` [Example 304, [3-(3-{3-cyclohexyl-1-[5-(trifluoromethyl)-2-pyridinyl]-1H-pyrazol-4-yl}propoxy)-4-methoxyphenyl]acetic acid]: the EC50 on PPARγ-RXRα heterodimer worked out at 40 nM. For the compound `CCc1cccc(CC(=O)O)c1OCCCc1cn(-c2ccc(C(F)(F)F)nn2)nc1C(C)C` [Example 245, [3-ethyl-2-(3-{3-isopropyl-1-[6-(trifluoromethyl)pyridazin-3-yl]-1H-pyrazol-4-yl}propoxy)phenyl]acetic acid], the inhibition in vivo at 0.005 % in diet was 42% in the assay with KKAY mice (setting [1]) and 55% in the assay with KKAY mice (setting [2]). The compound also gave an EC50 at PPARγ-RXRα heterodimer of 19 nM.

As to `O=C(O)CCc1cc(OCCCc2cn(-c3ccc(C(F)(F)F)cn3)nc2-c2ccccc2)nn1-c1ccccc1` [Example 125, 3-[1-phenyl-3-(3-{3-phenyl-1-[5-(trifluoromethyl)-2-pyridyl]-1H-pyrazol-4-yl}propoxy)-1H-pyrazol-5-yl]propionic acid], the EC50 at PPARγ-RXRα heterodimer turned out to be 26 nM. This counts as double-digit nanomolar. As for `CCOc1nn(-c2ccc(C(F)(F)F)cn2)cc1CCCOc1cc(CCC(=O)O)n(-c2ccccc2)n1` [Example 42, 3-[3-(3-{3-ethoxy-1-[5-(trifluoromethyl)-2-pyridyl]-1H-pyrazol-4-yl}propoxy)-1-phenyl-1H-pyrazol-5-yl]propionic acid], the inhibition in vivo at 0.005 % in diet came out at 32% in the assay with KKAY mice (setting [1]) and 19% in the assay on KKAY mice (setting [2]). Further, the EC50 at PPARγ-RXRα heterodimer was found to be 19 nM. The compound `CCOc1nn(-c2ccc(C(F)(F)F)cn2)cc1CCCOc1ccc(CCC(=O)O)c(OC(C)C)c1` [Example 116, 3-[4-(3-{3-ethoxy-1-[5-(trifluoromethyl)-2-pyridinyl]-1H-pyrazol-4-yl}propoxy)-2-isopropoxyphenyl]propanoic acid] showed an EC50 at PPARγ-RXRα heterodimer of 82 nM.

Regarding `CCC(CC)c1nn(-c2ccc(Cl)cn2)cc1CCCOc1c(CC(=O)O)cccc1OC` [Example 223, (2-{3-[1-(5-chloro-2-pyridyl)-3-(1-ethylpropyl)-1H-pyrazol-4-yl]propoxy}-3-methoxyphenyl)acetic acid], the inhibition in vivo at 0.005 % in diet is 38% with KKAY mice (setting [1]) and 55% with KKAY mice (setting [2]). This compound displayed an EC50 at PPARγ-RXRα heterodimer of 24 nM. `CCOc1nn(-c2ccc(C(F)(F)F)cn2)cc1CCCCOc1ccccc1CC(=O)O` [Example 137, [2-(4-{3-ethoxy-1-[5-(trifluoromethyl)-2-pyridyl]-1H-pyrazol-4-yl}butoxy)phenyl]acetic acid]: the half-maximal effective concentration (EC50) on PPARγ-RXRα heterodimer is 35 nM. This counts as double-digit nanomolar. Still for that read-out and setting: the value for `Cc1cccc(CC(=O)O)c1OCCCc1cn(-c2ccc(C(F)(F)F)cn2)nc1C1CCCCC1` [Example 316, [2-(3-{3-cyclohexyl-1-[5-(trifluoromethyl)-2-pyridinyl]-1H-pyrazol-4-yl}propoxy)-3-methylphenyl]acetic acid] was 3.8 nM.

As to `CCC(CC)c1nn(-c2ccc(C(F)(F)F)nn2)cc1CCCOc1c(C)cccc1CC(=O)O` [Example 340, [2-(3-{3-(1-ethylpropyl)-1-[6-(trifluoromethyl)pyridazin-3-yl]-1H-pyrazol-4-yl}propoxy)-3-methylphenyl]acetic acid], the inhibition in vivo at 0.005 % in diet is 49% in the assay with KKAY mice (setting [1]) and 55% with KKAY mice (setting [2]). It took 22 nM to reach a half-maximal effect on PPARγ-RXRα heterodimer (EC50). The matching figures for `CCc1cccc(CC(=O)O)c1OCCCc1cn(-c2ccc(C(F)(F)F)cn2)nc1C(C)C` [Example 227, [3-ethyl-2-(3-{3-isopropyl-1-[5-(trifluoromethyl)-2-pyridinyl]-1H-pyrazol-4-yl}propoxy)phenyl]acetic acid]: 43%, 26% and 22 nM. In the case of `CCCc1nn(-c2ccc(C(F)(F)F)cn2)cc1CCCCOc1cc(CCC(=O)O)n(-c2ccccc2)n1` [Example 58, 3-[1-phenyl-3-(4-{3-propyl-1-[5-(trifluoromethyl)-2-pyridinyl]-1H-pyrazol-4-yl}butoxy)-1H-pyrazol-5-yl]propanoic acid], on PPARγ-RXRα heterodimer, the EC50 is 43 nM.

With `CCOc1nn(-c2ccc(C(F)(F)F)cn2)cc1CCCOc1cccc(CC(=O)O)c1` [Example 30, [3-(3-{3-ethoxy-1-[5-(trifluoromethyl)-2-pyridyl]-1H-pyrazol-4-yl}propoxy)phenyl]acetic acid], the inhibition in vivo at 0.005 % in diet was 35% in the assay with KKAY mice (setting [1]) and 58% in the assay with KKAY mice (setting [2]). A half-maximal response on PPARγ-RXRα heterodimer (EC50) required 210 nM.

Regarding `CCCc1nn(-c2ccc(C(F)(F)F)cn2)cc1CCCOc1ccc(CCC(=O)O)c(OCC)c1` [Example 98, 3-[2-ethoxy-4-(3-{3-propyl-1-[5-(trifluoromethyl)-2-pyridinyl]-1H-pyrazol-4-yl}propoxy)phenyl]propanoic acid], on PPARγ-RXRα heterodimer, the EC50 was determined as 110 nM. For the compound `COc1cccc(CC(=O)O)c1OCCCc1cn(-c2ccc(Cl)cn2)nc1C(C)C` [Example 311, (2-{3-[1-(5-chloro-2-pyridinyl)-3-isopropyl-1H-pyrazol-4-yl]propoxy}-3-methoxyphenyl)acetic acid], the inhibition in vivo at 0.005 % in diet is 52% in the assay with KKAY mice (setting [1]) and 29% in the assay on KKAY mice (setting [2]). Further, the midpoint of the response at PPARγ-RXRα heterodimer, the EC50, lay at 100 nM. Compound `CCCc1nn(-c2ccc(C(F)(F)F)cn2)cc1CCCOc1c(C)cccc1CC(=O)O` [Example 319, [3-methyl-2-(3-{3-propyl-1-[5-(trifluoromethyl)-2-pyridinyl]-1H-pyrazol-4-yl}propoxy)phenyl]acetic acid] registered an EC50 at PPARγ-RXRα heterodimer of 26 nM. In other words, the double-digit nanomolar range. As for `O=C(O)CCc1cc(OCCCc2cn(-c3ccc(C(F)(F)F)cn3)nc2C2CCCCC2)nn1-c1ccccc1` [Example 189, 3-[3-(3-{3-cyclohexyl-1-[5-(trifluoromethyl)-2-pyridyl]-1H-pyrazol-4-yl}propoxy)-1-phenyl-1H-pyrazol-5-yl]propionic acid], the inhibition in vivo at 0.005 % in diet in the assay with KKAY mice (setting [1]) is 50%; in the assay with KKAY mice (setting [2]), 38%. Moreover, the EC50 on PPARγ-RXRα heterodimer came out at 14 nM. For `CCCc1nn(-c2ccc(C(F)(F)F)cn2)cc1CCCOc1c(Br)cccc1CC(=O)O` [Example 237, [3-bromo-2-(3-{3-propyl-1-[5-(trifluoromethyl)-2-pyridinyl]-1H-pyrazol-4-yl}propoxy)phenyl]acetic acid], a half-maximal effect on PPARγ-RXRα heterodimer (EC50) was put at 17 nM. Still for that read-out and setting: to `CCCc1nn(-c2ccc(C(F)(F)F)cn2)cc1CCCOc1cc(CCC(=O)O)n(-c2ccccc2)n1` [Example 43, 3-[1-phenyl-3-(3-{3-propyl-1-[5-(trifluoromethyl)-2-pyridyl]-1H-pyrazol-4-yl}propoxy)-1H-pyrazol-5-yl]propionic acid] belongs 53 nM. The same measure, in the same setting: to `Cc1cccc(CC(=O)O)c1OCCCc1cn(-c2ccc(C(F)(F)F)nn2)nc1C(C)(C)C` [Example 367, [2-(3-{3-tert-butyl-1-[6-(trifluoromethyl)pyridazin-3-yl]-1H-pyrazol-4-yl}propoxy)-3-methylphenyl]acetic acid] belongs 41 nM; to `CCOc1nn(-c2ccc(C(F)(F)F)cn2)cc1CCCCOc1cc(CCC(=O)O)n(-c2ccccc2)n1` [Example 104, 3-[3-(4-{3-ethoxy-1-[5-(trifluoromethyl)-2-pyridinyl]-1H-pyrazol-4-yl}butoxy)-1-phenyl-1H-pyrazol-5-yl]propanoic acid], 34 nM.

The compound `CC(C)c1nn(-c2ccc(C(F)(F)F)cn2)cc1CCCOc1cc(CCC(=O)O)n(-c2ccccc2)n1` [Example 24, 3-[3-(3-{3-isopropyl-1-[5-(trifluoromethyl)-2-pyridyl]-1H-pyrazol-4-yl}propoxy)-1-phenyl-1H-pyrazol-5-yl]propionic acid] gave a concentration for a half-maximal effect (EC50) on PPARγ-RXRα heterodimer of 38 nM. This EC50 and that of the compound before are within 1.5-fold of each other.
